PMC12395308 (ACS Central Science, 2025)

Columns and labels:
[1] = In vivo plasma exposure after a single oral dose (RACE-PK); conditions: single oral dose 10 mg/kg
[2] = Lipophilicity (logD) by shake flask method
[3] = Chemical stability in neat DMSO (UV spectrophotometer); conditions: post 24 h of incubation
[4] = Aqueous solubility in Tris HCl buffer (pH 7.4), shake flask method; conditions: 37 °C, pH 7.4, aqueous buffer, thermodynamic from solid
[5] = Bioconversion of prodrugs in plasma, ex vivo (human); conditions: 200 μg/mL; for % of prodrug remaining at 20 h, human plasma: 37 °C, ex vivo; for eAUC20m–20h in human plasma, prodrug: 20 h ex vivo incubation
[6] = In vivo plasma exposure after repetitive single oral dosing for 10 consecutive days; conditions: 10th dose, oral, molar equivalent of 10 mg/kg INH
[7] = Bioconversion of prodrugs in plasma, ex vivo (mice); conditions: 200 μg/mL; for % of prodrug remaining at 20 h, mice plasma: 37 °C, ex vivo; for eAUC20m–20h in mice plasma, prodrug: 20 h ex vivo incubation
[8] = Aqueous stability in acidic and basic buffer (HPLC); conditions: post 24 h of incubation; for chemical stability, pH (7.6): percentage of parent remaining: basic buffer; for chemical stability, pH (3.0): percentage of parent remaining: acidic buffer

plasma concentration of AcINH at 20 min [1] | plasma eAUC20m–120m (AcINH) ([1]; n=3) | logD [2] | chemical stability, DMSO: percentage of parent remaining [3] [%] | solubility at 24 h ([4]; Tris HCl buffer) [mg/mL] | % of prodrug remaining at 20 h, human plasma [5] | eAUC20m–20h in human plasma, prodrug [5] [ng·h/mL] | eAUC20m–6h (AcHz) [6] | % of prodrug remaining at 20 h, mice plasma [7] | eAUC20m–20h in mice plasma, prodrug [7] [ng·h/mL] | chemical stability, pH (7.6): percentage of parent remaining [8] [%] | plasma concentration of in vivo released free INH at 20 min [1] | plasma eAUC20m–120m (INH) ([1]; n=3, 10 mg/kg) | chemical stability, pH (3.0): percentage of parent remaining [8] [%] | Structure (SMILES) | solubility at 24 h [4] [mg/mL] | plasma eAUC20m–120m (AcINH) ([1]; n=3, 10 mg/kg)
BLQ | BLQ ^d | -0.01 | 100.0 | 326 | 47.5% | 1402 ± 957 | BLQ ^d | 13.8% | 1214 ± 758 | 100.0 | – | – | – | CCOC(=O)NNC(=O)c1ccncc1.Cl [prodrug 1b] | – | –
BLQ | BLQ ^d | 0.2 | 100.0 | 86 | – | 860 ± 131 | BLQ ^d | – | 551 ± 81 | 100.0 | BLQ | BLQ and BLQ ^d | – | CCCOC(=O)NNC(=O)c1ccncc1.Cl [prodrug 1c] | – | –
– | – | 0.2 | 100.0 | 402 | significant lability and BLQ | 530 ± 316 | BLQ ^d | highly labile and BLQ | 168 ± 91 | 100.0 | – | – | 96.9 | C=CCOC(=O)NNC(=O)c1ccncc1.Cl [prodrug 1g] | – | –

The remaining lines, values behind:

Structure (SMILES) | plasma concentration of AcINH at 20 min [1] | plasma eAUC20m–120m (AcINH) ([1]; n=3) | logD [2] | chemical stability, DMSO: percentage of parent remaining [3] [%] | solubility at 24 h ([4]; Tris HCl buffer) [mg/mL] | % of prodrug remaining at 20 h, human plasma [5] | eAUC20m–20h in human plasma, prodrug [5] [ng·h/mL] | eAUC20m–6h (AcHz) [6] | % of prodrug remaining at 20 h, mice plasma [7] | eAUC20m–20h in mice plasma, prodrug [7] [ng·h/mL] | chemical stability, pH (7.6): percentage of parent remaining [8] [%] | plasma concentration of in vivo released free INH at 20 min [1] | plasma eAUC20m–120m (INH) ([1]; n=3, 10 mg/kg) | chemical stability, pH (3.0): percentage of parent remaining [8] [%] | solubility at 24 h [4] [mg/mL] | plasma eAUC20m–120m (AcINH) ([1]; n=3, 10 mg/kg)
Cl.O=C(NNC(=O)c1ccncc1)Oc1ccccc1 [prodrug 1j] | BLQ | BLQ ^d | 0.9 | 100.0 | – | below the quantification limit and BLQ | 752 ± 355 | – | 85.5% | 7347 ± 655 | 58.2 | – | – | 94.6 | 12.4 | –
CCCCOC(=O)NNC(=O)c1ccncc1.Cl [prodrug 1e] | – | – | 0.8 | 100.0 | 49.4 | – | 640 ± 116 | BLQ ^d | – | 180 ± 36 | 100.0 | – | – | 100.0 | – | –
CCC(C)OC(=O)NNC(=O)c1ccncc1.Cl (centres unmarked) [prodrug 1i] | BLQ | – | 0.8 | 100.0 | 111 | 89.1% | 2788 ± 217 | – | 63.8% | 1486 ± 35 | 98.3 | – | – | 100.0 | – | BLQ and below the limit of quantification and BLQ ^d
CC(C)COC(=O)NNC(=O)c1ccncc1.Cl [prodrug 1f] | – | – | 0.9 | 100.0 | 29.3 | – | 854 ± 615 | BLQ ^d | 13.2% | 382 ± 302 | 100.0 | – | – | 98.17 | – | –
